Assay results reported in patent publication US6383766B1, “Reduced cortisol conjugates” (Ortho-Clinical Diagnostics, Inc., priority 1998, dated 2002).

What was measured:
[1] = tested on: biotinylated sheep anti-cortisol gamma globulin (anti-cortisol antibody); test: VITROS ECi chemiluminescence competitive immunoassay, cross-reactivity (50% displacement of HRP-labeled conjugate); format: binding; conditions: cortisol conc. displacing 50% / cross-reactant conc. displacing 50% x 100; for Percent Cross-Reactivity, HRP-RC Invention Label: HRP labeled reduced cortisol-3-CMO-BSA (HRP-RC) as label; for Percent Cross-Reactivity, HRP-NRC Comparative Label: comparative HRP labeled nonreduced cortisol conjugate (HRP-NRC) as label
Experimental: Evaluation of the HRP labeled reduced cortisol-3-CMO-BSA (hereinafter referred to as HRP-RC conjugate) was evaluated using an Ortho-Clinical Diagnostic VITROS ECi chemiluminesence-based assay methodology.
100 ng/mL reduced cortisol-3-CMO-BSA-HRP (or 20 ng/mL of a comparative HRP-cortisol conjugate label, which is not a conjugate label of the present invention, but which was carried through the same procedures as the label of the invention except for the reduction step)
1.5 μg/mL biotinylated sheep anti-cortisol gamma globulin
An aliquot (75 μL) of anti-cortisol biotinylated sheep antibody, 30 μL of sample, serum comprising cortisol or a steroid structurally similar to cortisol (below), and 75 μL of HRP-RC conjugate were added to an VITROS ECi sample container to which strepavidin had been prebound. The solution was incubated at 37° C. for 30 minutes, then washed using the above-indicated wash reagent.
A 200 μL aliquot of the above-indicated signal reagent solution (100 μL of part A and 100 μL of part B combined just prior to use) was then added to the sample container. The solution was incubated for 5 minutes at 37° C., and the chemiluminesence intensity was then determined.
The above method was used to determine the concentration of potential cross reactant (steroid that is structurally similar to cortisol: 11-deoxycortisol, prednisolone, corticosterone and cortisone) that displaced fifty percent of a fixed amount of a comparative HRP labeled cortisol conjugate (nonreduced cortisol, HRP-NRC) or HRP-RC conjugate bound to a fixed amount of anti-cortisol antibody.
Varied levels of the potential cross reactant were added to sample containers containing either the comparative labeled cortisol conjugate (nonreduced cortisol, HRP-NRC) or HRP-RC conjugate of the instant invention, as described above.
The concentration of cross reactant resulting in a light signal measurement corresponding to 50% of the maximum attainable (all conjugate displaced) was determined and used to calculate the percent cross reactivity as described below and whose results are listed in Table 1.
Percent cross-reactivity is defined as The concentration of cortisol that displaced 50% of the HRP-NRC comparative conjugate (or the HRP-RC conjugate) divided by the concentration of cross-reactant that displaced 50% of the HRP-NRC comparative conjugate (or the HRP-RC conjugate) multiplied by 100 as determined per the assay method described hereinabove.

anti-cortisol antibody = conditions: prior art commercial cortisol assays; cited from earlier work

Row | Compound | Percent Cross-Reactivity, HRP-RC Invention Label [1] [%] | Percent Cross-Reactivity, HRP-NRC Comparative Label [1] [%] | cross-reactivity in commercial cortisol assays (anti-cortisol antibody)
1 | C[C@]12CCC(=O)C=C1CC[C@@H]1[C@@H]2CC[C@@]2(C)[C@H]1CC[C@]2(O)C(=O)CO [11-deoxycortisol] | 2.2 | 28.4 | greater than 10%
2 | C[C@]12C[C@H](O)[C@H]3[C@@H](CCC4=CC(=O)CC[C@@]43C)[C@@H]1CC[C@@H]2C(=O)CO [corticosterone] | 3.3 | 4.4 | 
3 | C[C@]12CCC(=O)C=C1CC[C@@H]1[C@@H]2[C@@H](O)C[C@@]2(C)[C@H]1CC[C@]2(O)C(=O)CO [cortisol] | 100 | 100 | 
4 | C[C@]12CCC(=O)C=C1CC[C@@H]1[C@@H]2C(=O)C[C@@]2(C)[C@H]1CC[C@]2(O)C(=O)CO [cortisone] | 1.8 | 5.5 | 
5 | C[C@]12C=CC(=O)C=C1CC[C@@H]1[C@@H]2[C@@H](O)C[C@@]2(C)[C@H]1CC[C@]2(O)C(=O)CO [prednisolone] | 24.6 | 34.8 | 
